Reference: EPA's ToxValDB 9.5 (doi:10.2903/j.efsa.2005.43r)
Converted amounts (≈) assume the structure as drawn.

What was measured:
[1] = system: Mesograpta sp.; test: LR50; higher = less toxic; conditions: chronic/long-term, mortality
[2] = system: Daphnia magna; conditions: chronic/long-term; duration: 21 days; reproduction
[3] = system: Tagia sp.; conditions: acute; duration: 14 days; mortality
[4] = system: Oncorhynchus mykiss; conditions: acute; duration: 96 hours; mortality
[5] = system: Rattus norvegicus
[6] = system: Anas platyrhynchos; conditions: reproductive
[7] = system: Apis mellifera; conditions: acute, duration: 24 hours, mortality
[8] = system: Colinus virginianus; conditions: acute, oral, mortality
[9] = system: Pimephales promelas; conditions: chronic/long-term; duration: 36 days
[10] = system: Canidae; conditions: chronic; duration: 1 years; oral; Dog Other; hematological

Work on `Cc1nc(N(C)C)nc(OC(=O)N(C)C)c1C` [Pirimicarb] yielded an LR50 ([1]; duration: 16 days) of 14.6 g/ha, an LR50 ([1]; duration: 28 days) of 14.6 g/ha and an NOEC [2] of 0.0009 mg/L. The LC50 [3] was > 60 mg/kg, the LC50 [4] was 79 mg/L (≈ 332 µM) and the LD50 ([5]; acute, oral, F, mortality) was 142 mg/kg. It also gave an NOAEL ([5]; acute, oral, gavage, clinical signs) of 10 mg/kg-day, an NOEC ([5]; reproduction developmental) of 81.8 mg/kg-day and an NOEC [6] of 12.1 mg/kg-day. The LD50 ([7]; dermal) was 53.1 µg/piece, the LD50 ([7]; oral, unspecified) was 4 µg/piece and the LC50 ([8]; duration: 5 days, diet) was 394 mg/kg-day. It also gave an LD50 ([8]; gavage) of 20.9 mg/kg, an NOEC [9] of 10 mg/L and an NOAEL [10] of 3.5 mg/kg-day.
